Values after ≈ are worked out from the molar mass of the structure shown.
Experiments:
[1] = test system: Human immunodeficiency virus 1; assay: Antiviral activity against HIV1 RF in human CEM-SS cells assessed as cell protection from infection at 2 to 5 uM after 7 days relative to control; assay type: functional
[2] = Inhibition of [20-3H]phorbol 12,13-dibutyrate binding to protein kinase C
CEM-SS = assay: Cytotoxicity against human CEM-SS cells assessed as inhibition of cell metabolic activity after 7 days by XTT assay; assay type: functional, cell-based; conditions: 168 h
[3] = test system: Human immunodeficiency virus 1; assay: Antiviral activity against HIV1 RF in human CEM-SS cells assessed as cell protection from infection after 7 days; assay type: functional, organism-based; conditions: Human immunodeficiency virus 1, CEM-SS, 168 h
P388 = assay: Cytotoxicity against mouse P388 cells; assay type: functional; conditions: read-out: ED50 (the source's name)

CCC/C=C/C=C\C(=O)O[C@@H]1[C@@H](C)[C@]2(O)[C@@H]3C=C(C)C(=O)[C@@H]3CC(CO)=C[C@H]2[C@@H]2C(C)(C)[C@]12OC(C)=O [PEDILSTATIN]
Activity [1]: 80% | Ki [2]: 620 nM | IC50 (CEM-SS): 13300 nM | EC50 [3]: 1030 nM | EC50 (P388): 0.28 µg/mL (≈ 0.546 µM)
